Each compound was assayed against Signal transducer and activator of transcription 3 (Homo sapiens, UniProt P40763) (assay: Inhibition of STAT3 in human Hep3B cells assessed as inhibition of IL-6 stimulated STAT3 expression by luciferase reporter assay).
Chain of Signal transducer and activator of transcription 3 (P40763 whole entry): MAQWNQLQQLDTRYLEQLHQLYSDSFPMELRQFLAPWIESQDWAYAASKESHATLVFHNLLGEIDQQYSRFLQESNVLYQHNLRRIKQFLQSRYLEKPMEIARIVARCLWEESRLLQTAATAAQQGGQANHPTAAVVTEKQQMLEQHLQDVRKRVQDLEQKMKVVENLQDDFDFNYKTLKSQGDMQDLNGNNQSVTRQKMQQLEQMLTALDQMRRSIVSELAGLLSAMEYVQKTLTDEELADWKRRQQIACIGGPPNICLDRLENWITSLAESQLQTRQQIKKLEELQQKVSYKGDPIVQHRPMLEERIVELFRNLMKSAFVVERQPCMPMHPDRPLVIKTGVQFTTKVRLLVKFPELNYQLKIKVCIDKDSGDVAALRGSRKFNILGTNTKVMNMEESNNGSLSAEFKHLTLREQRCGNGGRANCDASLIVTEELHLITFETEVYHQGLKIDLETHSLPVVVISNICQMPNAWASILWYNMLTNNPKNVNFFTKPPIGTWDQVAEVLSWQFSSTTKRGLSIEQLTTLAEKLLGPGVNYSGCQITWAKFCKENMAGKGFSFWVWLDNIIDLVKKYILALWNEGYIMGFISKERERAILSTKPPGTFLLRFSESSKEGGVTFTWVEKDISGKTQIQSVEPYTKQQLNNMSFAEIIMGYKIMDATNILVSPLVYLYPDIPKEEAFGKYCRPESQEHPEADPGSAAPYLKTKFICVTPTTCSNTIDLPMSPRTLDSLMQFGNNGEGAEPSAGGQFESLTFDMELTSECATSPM
For `O=[N+]([O-])c1ccc2c(c1)S(=O)(=O)C=C2`, the IC50 was 0.67 µM.
Compound `COc1ccc(CC[C@@H](O)C[C@H](O)CCc2ccc(OC)c(OC)c2)cc1OC` has an IC50 of 50 µM.
`COc1ccc(CC[C@H](O)C[C@@H](O)/C=C/c2cc(OC)c(OC)c(OC)c2)cc1OC` was tested, and the IC50 was 37.6 µM.
Compound `COc1ccc(/C=C/[C@H](O)C[C@@H](O)CCc2ccc(OC)c(OC)c2)cc1OC` has an IC50 of 19.9 µM.
In the case of `COc1ccc(/C=C/[C@@H](C[C@@H](O)CCc2ccc(OC)c(OC)c2)OC)cc1OC`, the IC50 is reported as 12.9 µM.
Work on `COc1ccc(/C=C/C(C[C@H](O)CCc2ccc(OC)c(OC)c2)OC)cc1OC` (stereo partly drawn) yielded an IC50 of 11.1 µM.
`COc1ccc(/C=C/C=C/C(=O)/C=C/c2ccc(O)cc2)cc1` was tested, and the IC50 was 4.1 µM.
`COc1cc(/C=C/C(=O)CC(=O)CC(O)c2ccc(O)c(OC)c2)ccc1O` (stereo not drawn) gave an IC50 of 21.5 µM.
